This is an account of results in US20200216417A1, “INHIBITORS OF FIBROBLAST ACTIVATION PROTEIN” (Praxis Biotech LLC, priority 2019, published 2020).

Some results are limits rather than exact numbers.

The target in assay [1] is T1, recombinant human DPP9 (rhDPP9) (Homo sapiens, UniProt Q86TI2).
T1 construct: purchased R&S system / R&D systems (both sic) 5419-SE
As to the kind of experiment: DPP9 inhibition assay, 10 ng rhDPP9, Tris-HCl/BSA buffer. Particulars: Table 3B. The format is biochemical.

For another assay, the target named is T2, FAPα (Mus musculus, UniProt P97321).
T2 construct: from tissue; host or cells: C57BL/6 mouse plasma (EDTA)
T2 sequence (P97321 24-761 limits assumed): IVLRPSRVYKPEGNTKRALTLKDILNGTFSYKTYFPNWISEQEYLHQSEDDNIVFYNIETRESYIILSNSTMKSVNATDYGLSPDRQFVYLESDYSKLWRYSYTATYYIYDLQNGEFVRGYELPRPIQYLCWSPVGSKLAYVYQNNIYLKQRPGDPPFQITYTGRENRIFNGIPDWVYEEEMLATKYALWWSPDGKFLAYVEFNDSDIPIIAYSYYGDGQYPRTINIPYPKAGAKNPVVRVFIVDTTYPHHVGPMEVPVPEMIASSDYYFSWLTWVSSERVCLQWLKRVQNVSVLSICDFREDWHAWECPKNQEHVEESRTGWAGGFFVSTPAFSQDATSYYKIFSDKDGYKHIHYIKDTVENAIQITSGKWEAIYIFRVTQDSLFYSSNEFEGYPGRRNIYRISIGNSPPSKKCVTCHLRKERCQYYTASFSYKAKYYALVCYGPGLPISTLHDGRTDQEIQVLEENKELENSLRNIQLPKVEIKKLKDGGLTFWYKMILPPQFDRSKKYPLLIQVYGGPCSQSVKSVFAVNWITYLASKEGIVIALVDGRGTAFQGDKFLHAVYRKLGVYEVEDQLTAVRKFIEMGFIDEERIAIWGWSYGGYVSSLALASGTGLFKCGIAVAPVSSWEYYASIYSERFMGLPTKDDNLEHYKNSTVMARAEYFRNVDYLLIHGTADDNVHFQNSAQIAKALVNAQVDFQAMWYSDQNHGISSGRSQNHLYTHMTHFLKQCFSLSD
As to the kind of experiment: FAPα enzymatic activity in mouse plasma (PRXS-AMC). The format is biochemical, C57BL/6 mouse. Conditions: PRXS-AMC substrate, read-out: mouse plasma FAPα (PRXS-AMC) (exo IC50). How it is done: Approximately 500 μL of whole blood from one C57BL/6 mouse was harvested into BD Microtainer® tubes (K2) EDTA (#365974, Becton Dickinson and Co.) via terminal cardiac puncture. The blood sample was immediately centrifuged at approximately 9000 g at 4° C. for 5 minutes. Plasma was separated and stored at −80° C. in aliquots of 300 μL. To assay baseline FAPα enzymatic exopeptidase activity, 5 μL of thawed, plasma was diluted (1:5) with cFAP buffer (100 mM Tris-HCl, 400 mM NaCl, 50 mM salicylic acid, 1 mM EDTA, pH 7.5) and mixed with 35 μL of the same buffer before being pre-incubated with different concentrations of 10 μL of test compounds or DMSO vehicle for 15 minutes at 37° C. in 96-well black plates (Nunc, #237108). After pre-incubation, 50 μL of 200 μM PRXS-AMC were added to the mixture. The assay was performed for 1 hour at 37° C. protected from light. 7-Amino-4-Methylcoumarin (AMC) release was detected measuring fluorescence at an excitation wavelength of 380 nm and an emission wavelength of 460 nm using a Multifunction Microplate Reader (Synergy 4, Biotek). All measurements were carried out at least as a single point.

The target in assay [2] is T3, recombinant human PREP (rhPREP) (Homo sapiens, UniProt P48147).
T3 sequence (P48147 1-710): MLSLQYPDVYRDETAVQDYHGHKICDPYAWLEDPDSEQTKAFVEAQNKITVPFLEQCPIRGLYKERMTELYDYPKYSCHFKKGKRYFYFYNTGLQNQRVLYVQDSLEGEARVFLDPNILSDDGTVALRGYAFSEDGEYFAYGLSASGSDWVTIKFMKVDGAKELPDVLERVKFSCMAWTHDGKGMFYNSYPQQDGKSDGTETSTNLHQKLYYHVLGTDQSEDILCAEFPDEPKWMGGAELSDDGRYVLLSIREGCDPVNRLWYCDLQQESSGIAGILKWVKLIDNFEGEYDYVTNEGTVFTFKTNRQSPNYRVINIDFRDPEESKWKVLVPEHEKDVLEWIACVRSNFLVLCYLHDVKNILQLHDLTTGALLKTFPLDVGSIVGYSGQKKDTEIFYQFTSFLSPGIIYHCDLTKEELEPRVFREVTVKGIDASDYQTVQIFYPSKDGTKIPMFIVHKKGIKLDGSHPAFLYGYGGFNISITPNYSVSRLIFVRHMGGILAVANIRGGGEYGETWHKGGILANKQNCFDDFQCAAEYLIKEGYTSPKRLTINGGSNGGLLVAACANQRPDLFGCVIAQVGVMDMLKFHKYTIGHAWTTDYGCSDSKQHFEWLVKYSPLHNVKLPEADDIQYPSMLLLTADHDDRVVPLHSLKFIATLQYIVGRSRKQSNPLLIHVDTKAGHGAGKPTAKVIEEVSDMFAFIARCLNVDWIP
As to the kind of experiment: PREP enzymatic activity assay, Z-Gly-Pro-AMC. Format: biochemical.

Another assay has as its target T4, DPPIV (Mus musculus, UniProt P28843).
T4 construct: from tissue; host or cells: C57BL/6 mouse plasma (EDTA)
The assay is described as follows: DPPIV enzymatic activity in mouse plasma (H-Gly-Pro-AMC). Format: biochemical, C57BL/6 mouse. Particulars: H-Gly-Pro-AMC substrate. How it is done:
Approximately 500 μL of whole blood from one C57BL/6 mouse was harvested into BD Microtainer® tubes (K2) EDTA (#365974, Becton Dickinson and Co.) via terminal cardiac puncture. The blood sample was immediately centrifuged at approximately 9000 g at 4° C. for 5 minutes. Plasma was separated and stored at −80° C. in aliquots of 300 μL. To assay baseline DPPIV enzymatic exopeptidase activity, 5 μL of thawed, mouse plasma was diluted (1:5) in buffer (100 mM Tris-HCl, 400 mM NaCl, 50 mM salicylic acid, 1 mM EDTA, pH 7.5) and mixed with 35 μL of the same buffer before being pre-incubated with different concentrations of 10 μL of test compounds or DMSO vehicle for 15 minutes at 37° C. in 96-well black plates (Nunc, #237108). After pre-incubation, 50 μL of 200 μM dipeptide substrate H-Gly-Pro-AMC (Bachem, # L-1225) was added to the mixture. The assay was performed for 1 hour at 37° C. 7-Amino-4-Methylcoumarin (AMC) release was detected measuring fluorescence at an excitation wavelength of 360 nm and an emission wavelength of 460 nm using a Multifunction Microplate Reader (Synergy 4, Biotek). All measurements were carried out at least in duplicate.

Assay [3] deals with T5, recombinant human DPPIV (rhDPPIV) (Homo sapiens, UniProt P27487).
T5 construct: purchased R&S system (so in the source)
T5 sequence (P27487 whole entry): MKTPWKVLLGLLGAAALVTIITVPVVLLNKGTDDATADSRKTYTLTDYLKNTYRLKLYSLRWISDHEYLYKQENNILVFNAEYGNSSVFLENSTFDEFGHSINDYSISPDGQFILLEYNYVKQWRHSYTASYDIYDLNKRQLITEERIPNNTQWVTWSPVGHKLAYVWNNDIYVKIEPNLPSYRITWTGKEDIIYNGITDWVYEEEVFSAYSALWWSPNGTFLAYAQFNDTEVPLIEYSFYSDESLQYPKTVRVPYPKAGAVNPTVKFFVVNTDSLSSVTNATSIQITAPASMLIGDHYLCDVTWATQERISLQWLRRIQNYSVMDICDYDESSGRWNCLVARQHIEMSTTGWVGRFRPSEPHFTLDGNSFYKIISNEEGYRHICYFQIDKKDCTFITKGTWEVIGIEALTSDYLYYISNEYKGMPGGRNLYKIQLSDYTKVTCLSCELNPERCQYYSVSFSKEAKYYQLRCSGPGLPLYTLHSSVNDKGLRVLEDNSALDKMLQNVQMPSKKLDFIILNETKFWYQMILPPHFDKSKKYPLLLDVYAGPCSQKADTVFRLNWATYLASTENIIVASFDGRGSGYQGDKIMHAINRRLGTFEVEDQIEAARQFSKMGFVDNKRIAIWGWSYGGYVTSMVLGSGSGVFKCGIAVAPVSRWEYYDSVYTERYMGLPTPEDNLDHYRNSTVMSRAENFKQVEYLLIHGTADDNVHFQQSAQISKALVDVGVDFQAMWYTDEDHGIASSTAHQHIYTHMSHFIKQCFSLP
As to the kind of experiment: DPPIV enzymatic activity assay, H-Gly-Pro-pNA. The format is biochemical.

T1 sequence (Q86TI2 whole entry): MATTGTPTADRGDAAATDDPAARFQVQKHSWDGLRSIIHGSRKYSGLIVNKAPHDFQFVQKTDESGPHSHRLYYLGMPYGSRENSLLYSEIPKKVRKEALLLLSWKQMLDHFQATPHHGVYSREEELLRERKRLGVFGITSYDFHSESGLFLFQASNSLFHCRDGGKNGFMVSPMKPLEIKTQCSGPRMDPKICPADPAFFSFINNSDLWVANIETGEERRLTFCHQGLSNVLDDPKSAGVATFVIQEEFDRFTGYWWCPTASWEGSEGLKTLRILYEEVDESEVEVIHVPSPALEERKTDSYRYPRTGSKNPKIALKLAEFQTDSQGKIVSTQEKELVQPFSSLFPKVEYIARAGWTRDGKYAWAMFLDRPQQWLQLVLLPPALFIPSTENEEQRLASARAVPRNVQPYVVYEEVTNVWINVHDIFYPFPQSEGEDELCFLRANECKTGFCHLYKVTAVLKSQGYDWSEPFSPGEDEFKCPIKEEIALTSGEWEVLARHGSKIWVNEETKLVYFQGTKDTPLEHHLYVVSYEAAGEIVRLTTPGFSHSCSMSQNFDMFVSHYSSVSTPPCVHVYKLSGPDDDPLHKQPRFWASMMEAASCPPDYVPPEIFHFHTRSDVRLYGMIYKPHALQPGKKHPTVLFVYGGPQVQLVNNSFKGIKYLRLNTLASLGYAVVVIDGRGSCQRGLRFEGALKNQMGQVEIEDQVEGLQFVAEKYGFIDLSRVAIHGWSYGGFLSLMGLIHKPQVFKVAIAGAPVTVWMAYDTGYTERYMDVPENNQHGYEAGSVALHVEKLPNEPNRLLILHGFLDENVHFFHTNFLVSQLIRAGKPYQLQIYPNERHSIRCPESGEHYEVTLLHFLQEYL
T4 sequence (P28843 37-760 limits assumed): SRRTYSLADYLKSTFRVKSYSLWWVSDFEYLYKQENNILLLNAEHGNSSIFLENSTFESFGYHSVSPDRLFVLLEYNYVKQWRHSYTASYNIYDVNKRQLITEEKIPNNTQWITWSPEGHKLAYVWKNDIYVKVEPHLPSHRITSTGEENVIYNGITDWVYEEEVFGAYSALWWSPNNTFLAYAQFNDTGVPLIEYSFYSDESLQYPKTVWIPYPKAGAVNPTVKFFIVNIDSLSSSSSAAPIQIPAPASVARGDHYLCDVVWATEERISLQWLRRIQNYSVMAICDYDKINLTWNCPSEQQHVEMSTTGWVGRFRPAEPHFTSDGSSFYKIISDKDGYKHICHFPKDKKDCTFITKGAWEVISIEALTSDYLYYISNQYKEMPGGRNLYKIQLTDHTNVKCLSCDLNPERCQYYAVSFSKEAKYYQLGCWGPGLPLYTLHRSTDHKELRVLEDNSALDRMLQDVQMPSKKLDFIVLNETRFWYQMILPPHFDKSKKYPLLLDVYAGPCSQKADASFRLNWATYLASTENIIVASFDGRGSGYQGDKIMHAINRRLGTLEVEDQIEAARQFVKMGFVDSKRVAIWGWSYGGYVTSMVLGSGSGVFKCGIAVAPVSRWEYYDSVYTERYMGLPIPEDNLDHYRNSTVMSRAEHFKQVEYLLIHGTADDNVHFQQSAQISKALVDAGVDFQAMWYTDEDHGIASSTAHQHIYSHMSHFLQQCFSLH

As a reminder, the IC50 is the midpoint of a concentration-inhibition curve. As to `N#C[C@@H]1CC(F)(F)CN1C(=O)CNC(=O)c1ccncc1NCc1ccc(F)cc1` [Compound 2, (S)—N-(2-(2-cyano-4,4-difluoropyrrolidin-1-yl)-2-oxoethyl)-3-((4-fluorobenzyl)amino)isonicotinamide], the concentration for half-maximal inhibition (IC50) in assay [1] was above 10 µM; at FAPα it was below 1 µM; in assay [2] (Table 3A) it was above 10 µM; in assay [2] (Table 3B), above 10 µM; on DPPIV, below 10 µM; in assay [3] (Table 3A) it was above 10 µM. Further, the IC50 in assay [3] (Table 3B) is above 10 µM.
For `COc1ccc(C(=O)Nc2cnccc2C(=O)NCC(=O)N2CC(F)(F)C[C@H]2C#N)cc1` [Compound 3, (S)—N-(2-(2-cyano-4,4-difluoropyrrolidin-1-yl)-2-oxoethyl)-3-(4-methoxybenzamido)isonicotinamide], the IC50 is 1 to 10 µM in assay [1]; below 1 µM on FAPα; above 10 µM in assay [2] (Table 3A); above 10 µM in assay [2] (Table 3B); 1 to 10 µM at DPPIV; 1 to 10 µM in assay [3] (Table 3A). The IC50 in assay [3] (Table 3B) lay within 1 to 10 µM.
`N#C[C@@H]1CC(F)(F)CN1C(=O)CNC(=O)c1ccncc1NC(=O)COc1ccc(Cl)c(F)c1` [Compound 5, (S)-3-(2-(4-chloro-3-fluorophenoxy)acetamido)-N-(2-(2-cyano-4,4-difluoropyrrolidin-1-yl)-2-oxoethyl)isonicotinamide]: the IC50 was 1 to 10 µM in assay [1]; below 1 µM at FAPα; above 10 µM in assay [2] (Table 3A); above 10 µM in assay [2] (Table 3B); below 1 µM on DPPIV; 1 to 10 µM in assay [3] (Table 3A). Moreover, the half-maximal inhibitory concentration (IC50) in assay [3] (Table 3B) lay within 1 to 10 µM.
With `N#C[C@@H]1CC(F)(F)CN1C(=O)CNC(=O)c1ccncc1Cc1ccccc1F` [Compound 7, (S)—N-(2-(2-cyano-4,4-difluoropyrrolidin-1-yl)-2-oxoethyl)-3-(2-fluorobenzyl)isonicotinamide], the IC50 in assay [1] is 1 to 10 µM; on FAPα it was below 1 µM; in assay [2] (Table 3A) it was 1 to 10 µM; in assay [2] (Table 3B) it was 1 to 10 µM; at DPPIV it was below 10 µM; in assay [3] (Table 3A), above 10 µM. Further, the IC50 in assay [3] (Table 3B) was above 10 µM.
For `N#C[C@@H]1CC(F)(F)CN1C(=O)CNC(=O)c1ccncc1Cc1ccc(F)cc1` [Compound 8, (S)—N-(2-(2-cyano-4,4-difluoropyrrolidin-1-yl)-2-oxoethyl)-3-(4-fluorobenzyl)isonicotinamide], the IC50 in assay [1] was 1 to 10 µM; at FAPα it was below 1 µM; in assay [2] (Table 3A), above 10 µM; in assay [2] (Table 3B), above 10 µM; on DPPIV, below 10 µM; in assay [3] (Table 3A), above 10 µM. In assay [3] (Table 3B), the IC50 was above 10 µM.
In the case of `N#C[C@@H]1CC(F)(F)CN1C(=O)CNC(=O)c1ccncc1/C=C/c1ccc(Cl)cc1` [Compound 9, (S,E)-3-(4-chlorostyryl)-N-(2-(2-cyano-4,4-difluoropyrrolidin-1-yl)-2-oxoethyl)isonicotinamide], the IC50 in assay [1] was below 1 µM; on FAPα, below 1 µM; in assay [2] (Table 3A) it was above 10 µM; in assay [2] (Table 3B) it was above 10 µM; at DPPIV it was below 10 µM; in assay [3] (Table 3A), above 10 µM. The IC50 in assay [3] (Table 3B) is above 10 µM.
